Results reported in US20230143612A1 (Arbutus Biopharma Corporation, priority 2020, published 2023).

The compounds below were run against PD-L1 His protein / PD-1 Fc protein (Homo sapiens, UniProt Q9NZQ7) (assay: HTRF Assay (PD-1/PD-L1 interaction)). Settings: PD-L1 His 6 nM, PD-1 Fc 6 nM.
Assay type: binding
Outline: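 Compounds tested from 20 μM down to 0.001 μM (3-fold) against 6 nM PD-L1 His and 6 nM PD-1 Fc, 15 min room temperature incubation. Detection after 1 h at room temperature with Tb cryptate anti-6HIS and XL665 anti-human IgG reagents (mixture at 0.35 nM and 6.7 nM), HTRF signal.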

Sequence of PD-L1 His protein / PD-1 Fc protein (Q9NZQ7 19-238 limits assumed): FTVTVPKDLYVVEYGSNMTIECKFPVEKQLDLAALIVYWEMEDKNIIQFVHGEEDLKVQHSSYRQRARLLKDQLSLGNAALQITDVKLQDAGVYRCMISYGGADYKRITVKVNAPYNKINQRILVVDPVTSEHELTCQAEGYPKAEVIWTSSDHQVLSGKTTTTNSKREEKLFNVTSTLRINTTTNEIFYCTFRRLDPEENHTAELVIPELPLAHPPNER

Compared with `COc1nc(-c2cccc(-c3cccc(-c4ccn5c(=O)c(CN6CC(CO)C6)cnc5c4)c3Cl)c2Cl)ccc1CN1CC[C@H](C(=O)O)C1` [Example 135, (S)-1-((6-(2,2′-Dichloro-3′-(3-((3-(hydroxymethyl)azetidin-1-yl)methyl)-4-oxo-4H-pyrido[1,2-a]pyrimidin-8-yl)-[1,1′-biphenyl]-3-yl)-2-methoxypyridin-3-yl)methyl)pyrrolidine-3-carboxylic acid], `COc1nc(-c2cccc(-c3cccc(-c4ccn5c(=O)c(CN[C@H]6CCOC[C@@H]6O)cnc5c4)c3Cl)c2Cl)ccc1CNC[C@@H]1CCC(=O)N1` [Example 163] is 4-fold higher in IC50: 0.2 nM for the first, 0.8 nM for the second.

First: COc1nc(-c2cccc(-c3cccc(-c4cnc5c(N)c(CO)sc5c4)c3Cl)c2Cl)ccc1CNC[C@@H]1CCC(=O)N1 [Example 217, (S)-5-((((6-(3′-(3-Amino-2-(hydroxymethyl)-thieno[3,2-b]-pyridin-6-yl)-2,2′-dichloro-[1,1′-biphenyl]-3-yl)-2-methoxypyridin-3-yl)methyl)amino)methyl)pyrrolidin-2-one]
Second: COc1nc(-c2cccc(-c3cccc(-c4cc5ncc(CNCCO)cc5cn4)c3Cl)c2Cl)ccc1CNC[C@@H]1CCC(=O)N1 [Example 334, (S)-5-((((6-(2,2′-Dichloro-3′-(3-(((2-hydroxyethyl)amino)methyl)-1,6-naphthyridin-7-yl)-[1,1′-biphenyl]-3-yl)-2-methoxypyridin-3-yl)methyl)amino)methyl)pyrrolidin-2-one]
The IC50 of the first is 35-fold higher: 3.5 nM for the first, 0.1 nM for the second. The second is the more potent here.

Going from `COc1nc(-c2cccc(-c3cccc(-c4ccn5c(=O)c(CNC[C@@H]6CCC(=O)N6)cnc5c4)c3Cl)c2Cl)ccc1CN[C@H]1C[C@](C)(O)C1` [Example 142, 8-(2,2′-Dichloro-3′-(5-((((1r,3r)-3-hydroxy-3-methylcyclobutyl)amino)methyl)-6-methoxypyridin-2-yl)-[1,1′-biphenyl]-3-yl)-3-(((((S)-5-oxopyrrolidin-2-yl)methyl)amino)methyl)-4H-pyrido[1,2-a]pyrimidin-4-one] to `COc1nc(-c2cccc(-c3cccc(-c4ccn5c(=O)c(CNC6CCS(=O)(=O)CC6)cnc5c4)c3Cl)c2Cl)ccc1CNC[C@@H]1CCC(=O)N1` [Example 224, (S)-8-(2,2′-dichloro-3′-(6-methoxy-5-((((5-oxopyrrolidin-2-yl)-methyl)amino)-methyl)-pyridin-2-yl)-[1,1′-biphenyl]-3-yl)-3-(((1,1-dioxidotetrahydro-2H-thiopyran-4-yl)-amino)methyl)-4H-pyrido[1,2-a]-pyrimidin-4-one], the IC50 rises from 1.7 nM to 2.8 nM (1.6-fold). The first is the more potent here.

First: COc1nc(-c2cccc(-c3cccc(-c4ccn5c(=O)c(CN(C)C[C@H](C)O)cnc5c4)c3Cl)c2Cl)ccc1CNC[C@@H]1CCC(=O)N1 [Example 319, 8-[2-Chloro-3-[2-chloro-3-[6-methoxy-5-[[[(2S)-5-oxopyrrolidin-2-yl]methylamino]methyl]-2-pyridyl]phenyl]phenyl]-3-[[[(2S)-2-hydroxypropyl]-methyl-amino]methyl]pyrido[1,2-a]pyrimidin-4-one]
Second: COc1nc(-c2cccc(-c3cccc(-c4ccn5c(=O)c(CNCC(F)F)cnc5c4)c3Cl)c2Cl)ccc1CNC[C@@H]1CCC(=O)N1 [Example 297, 8-[2-Chloro-3-[2-chloro-3-[6-methoxy-5-[[[(2S)-5-oxopyrrolidin-2-yl]methylamino]methyl]-2-pyridyl]phenyl]phenyl]-3-[(2,2-difluoroethylamino)methyl]pyrido[1,2-a]pyrimidin-4-one]
The IC50 of the first is 3200-fold lower: 0.1 nM for the first, 320 nM for the second.

Going from `COc1nc(-c2cccc(-c3cccc(-c4ccc5nc(CNC[C@@H]6CCC(=O)N6)cn5c4)c3Cl)c2Cl)ccc1CNC[C@@H]1CCC(=O)N1` [Example 356, (5S)-5-[[[6-[2-Chloro-3-[2-chloro-3-[2-[[[(2S)-5-oxopyrrolidin-2-yl]methylamino]methyl]imidazo[1,2-a]pyridin-6-yl]phenyl]phenyl]-2-methoxy-3-pyridyl]methylamino]methyl]pyrrolidin-2-one] to `COc1nc(-c2cccc(-c3cccc(-c4ccn5c(=O)c(CNC[C@@H]6CCC(=O)N6)cnc5c4)c3Cl)c2Cl)ccc1CNC[C@@H]1CCC(=O)N1` [Example 33, 8-(2,2′-Dichloro-3′-(6-methoxy-5-(((((S)-5-oxopyrrolidin-2-yl)methyl)amino)methyl)pyridin-2-yl)-[1,1′-biphenyl]-3-yl)-3-(((((S)-5-oxopyrrolidin-2-yl)methyl)amino)methyl)-4H-pyrido[1,2-a]pyrimidin-4-one], the IC50 falls from 86 nM to 2.7 nM (32-fold). The second is the more potent here.

Compared with `COc1nc(-c2cccc(-c3cccc(-c4cc5c(=O)n(C)c(CNC6CCN(C(C)=O)CC6)nn5c4)c3Cl)c2Cl)ccc1CNC[C@@H]1CCC(=O)N1` [Example 457, 2-[[(1-Acetyl-4-piperidyl)amino]methyl]-6-[2-chloro-3-[2-chloro-3-[6-methoxy-5-[[[(2S)-5-oxopyrrolidin-2-yl]methylamino]methyl]-2-pyridyl]phenyl]phenyl]-3-methyl-pyrrolo[2,1-f][1,2,4]triazin-4-one], `COC(=O)CNCc1c(C)nc2cc(-c3cccc(-c4cccc(-c5ccc(CNC[C@@H]6CCC(=O)N6)c(OC)n5)c4Cl)c3Cl)ccn2c1=O` [Example 269, (S)-Methyl 2-(((8-(2,2′-dichloro-3′-(6-methoxy-5-((((5-oxopyrrolidin-2-yl)methyl)amino)methyl)pyridin-2-yl)-[1,1′-biphenyl]-3-yl)-2-methyl-4-oxo-4H-pyrido[1,2-a]pyrimidin-3-yl)methyl)amino)acetate] is 190-fold lower in IC50: 190 nM for the first, 1 nM for the second.

Going from `Cc1c(-c2ccn3c(=O)c(CNC[C@@H]4CCC(=O)N4)cnc3c2)cccc1-c1cccc(-c2ccc3c(n2)N(C)CCC3NC[C@@H]2CCC(=O)N2)c1Cl` (mixture of isomers) [Example 68, 8-(2′-Chloro-2-methyl-3′-(8-methyl-5-((((S)-5-oxopyrrolidin-2-yl)methyl)amino)-5,6,7,8-tetrahydro-1,8-naphthyridin-2-yl)-[1,1′-biphenyl]-3-yl)-3-(((((S)-5-oxopyrrolidin-2-yl)methyl)amino)methyl)-4H-pyrido[1,2-a]pyrimidin-4-one] to `COc1nc(-c2cccc(-c3cccc(-c4ccn5c(=O)c(CNC[C@@H]6CCC(=O)N6)cnc5c4)c3C(F)(F)F)c2Cl)ccc1CNC[C@@H]1CCC(=O)N1` [Example 208, 8-(2′-Chloro-3′-(6-methoxy-5-(((((S)-5-oxopyrrolidin-2-yl)methyl)amino)methyl)pyridin-2-yl)-2-(trifluoromethyl)-[1,1′-biphenyl]-3-yl)-3-(((((S)-5-oxopyrrolidin-2-yl)methyl)amino)methyl)-4H-pyrido[1,2-a]pyrimidin-4-one], the IC50 rises from 11 nM to 38 nM (3.5-fold).

`COC(=O)C[C@H](O)CNCc1cnc2cc(-c3cccc(-c4cccc(-c5ccc(CNC[C@@H]6CCC(=O)N6)c(OC)n5)c4Cl)c3Cl)ccn2c1=O` [Example 220, Methyl (3S)-4-[[8-[2-chloro-3-[2-chloro-3-[6-methoxy-5-[[[(2S)-5-oxopyrrolidin-2-yl]methylamino]methyl]-2-pyridyl]phenyl]phenyl]-4-oxo-pyrido[1,2-a]pyrimidin-3-yl]methylamino]-3-hydroxy-butanoate] and `COC(=O)C1(CNCc2cnc3cc(-c4cccc(-c5cccc(-c6ccc(CNC[C@@H]7CCC(=O)N7)c(OC)n6)c5Cl)c4Cl)ccn3c2=O)COC1` [Example 358, methyl (S)-3-((((8-(2,2′-dichloro-3′-(6-methoxy-5-((((5-oxopyrrolidin-2-yl)-methyl)-amino)-methyl)-pyridin-2-yl)-[1,1′-biphenyl]-3-yl)-4-oxo-4H-pyrido[1,2-a]pyrimidin-3-yl)-methyl)-amino)-methyl)oxetane-3-carboxylate] are the same in IC50: 0.1 nM for the first, 0.1 nM for the second.

Going from `COc1nc(-c2cccc(-c3cccc(-c4cc(F)c(CNC[C@@H]5CCC(=O)N5)c(OC)n4)c3Cl)c2Cl)ccc1CNC[C@@H]1CCC(=O)N1` [Example 232, (S)-5-((((6-(2,2′-dichloro-3′-(4-fluoro-6-methoxy-5-(((((S)-5-oxopyrrolidin-2-yl)methyl)amino)methyl)pyridin-2-yl)-[1,1′-biphenyl]-3-yl)-2-methoxypyridin-3-yl)methyl)amino)methyl)pyrrolidin-2-one] to `COc1nc(-c2cccc(-c3cccc(-c4ccn5c(=O)c(CNC[C@@H]6CCC(=O)N6)c(Cl)nc5c4)c3Cl)c2Cl)ccc1CNC[C@@H]1CCC(=O)N1` [Example 227, 2-Chloro-8-(2,2′-dichloro-3′-(6-methoxy-5-(((((S)-5-oxopyrrolidin-2-yl)methyl)amino)methyl)pyridin-2-yl)-[1,1′-biphenyl]-3-yl)-3-(((((S)-5-oxopyrrolidin-2-yl)methyl)amino)methyl)-4H-pyrido[1,2-a]pyrimidin-4-one], the IC50 falls from 63 nM to 12 nM (5.2-fold). The second is the more potent here.

Compared with `COC(=O)C1CN(Cc2cnc3cc(-c4cccc(-c5cccc(-c6ccc(CN7CC(C(=O)OC)C7)c(OC)n6)c5Cl)c4Cl)ncc3c2)C1` [Example 289, Methyl 1-((6-(2,2′-dichloro-3′-(3-((3-(methoxycarbonyl)azetidin-1-yl)methyl)-1,6-naphthyridin-7-yl)-[1,1′-biphenyl]-3-yl)-2-methoxypyridin-3-yl)methyl)azetidine-3-carboxylate], `COc1nc(-c2cccc(-c3cccc(-c4ccc5nc(C(=O)NC[C@H](C)N)cn5n4)c3Cl)c2Cl)ccc1CNC[C@@H]1CCC(=O)N1` [Example 439, N-[(2S)-2-Aminopropyl]-6-[2-chloro-3-[2-chloro-3-[6-methoxy-5-[[[(2S)-5-oxopyrrolidin-2-yl]methylamino]methyl]-2-pyridyl]phenyl]phenyl]imidazo[1,2-b]pyridazine-2-carboxamide] is 2.2-fold higher in IC50: 9 nM for the first, 20 nM for the second. The first is the more potent here.

`COc1nc(-c2cccc(-c3cccc(-c4ccc5c(c4Cl)CN(C[C@@H]4CCC(=O)N4)CC5)c3Cl)c2Cl)ccc1CNC[C@@H]1CCC(=O)N1` [Example 427, (S)-5-((8-Chloro-7-(2,2′-dichloro-3′-(6-methoxy-5-(((((S)-5-oxopyrrolidin-2-yl)methyl)-amino)-methyl)-pyridin-2-yl)-[1,1′-biphenyl]-3-yl)-3,4-dihydroisoquinolin-2(1H)-yl)methyl)pyrrolidin-2-one] showed an IC50 of 5.2 nM.
